Measured values taken from publication PMC5907308, “21st Brazilian Diabetes Society Congress” (Diabetology & Metabolic Syndrome, 2018).
Where two headings read alike, the source gives them in different places.

Columns and labels:
OVX female Swiss mice = format: in vivo, mouse
Procedure: (§1) Methods: Female Swiss mice with 80–100 days of life were OVX, after 2 weeks females in anestrous were distributed in the control groups (CTL): fed with normolipid diet and water containing 0.01% ethanol (vehicle); BPA control (CBPA): normolipid diet and water containing 0.01% ethanol and 1 μg/mL BPA; HFD: diet containing 36 g% fat and vehicle; and (HBPA): HFD and BPA. After 3 months, glucose tolerance test (GTT) and islet isolation for insulin secretion were performed (CEUA UFRJ-Macaé: MAC035 approval). Data were analyzed for the distribution of normality (Shapiro–Wilk), followed by analysis of variances: parametric (ANOVA followed by Newman–Keuls) or non-parametric (Kruskal–Wallis followed by Dunns; P < 0.05).

[1] = tested on: islets isolated from OVX female Swiss mice; test: Glucose-stimulated insulin secretion of isolated islets; format: cell-based, mouse; details: 2.8 mM glucose; HFD islets 1.2 ± 0.14
Procedure: as §1

diabetic pregnant women = format: in vivo, human; details: 2009-2016, medical records
Procedure: Methods: We analyzed the medical records of the diabetic pregnant women who were attended at the Endocrinology Clinic of Hospital do Servidor Público Municipal between 2009 and 2016. The incidence of fetal macrosomia, prematurity, respiratory distress, hospitalization in intensive care unit and abortion were analyzed and correlated to the glycemic control. Good glycemic control was defined by the presence of at least 80% of capillary blood glucose within the following range: pre-prandial < 90 mg/dL, 1 h postprandial < 140 mg/dL, 2 h postprandial < 120 mg/dL

patient with glucagonoma = test: Case report: glucagonoma; format: in vivo, human; details: zinc vitamin supplement and Octreotide
Description: Case report: patient four, hospitalized in 2015 for investigation of cholestatic syndrome associated with pancreatic mass of 51x48 mm evidenced on abdominal tomography (15/05/03). The patient underwent corpocaudal pancreatectomy and total splenectomy, with free surgical margins, but with angiolymphatic invasion. […] The patient received chemotherapy with gemcitabine which was replaced by Folfirinox. However, after 1 year without medical follow-up, they returned presenting weight loss, cutaneous disseminated lesions in the upper and lower limbs (Fig. 1), trunk and genitalia, angular cheilitis, macroglossia, deep venous thrombosis of the lower limbs and glycemia above 400 mg/dl. Figure 1: Cutaneous disseminated lesions It was used several antimicrobial regimens to treat skin lesions, unsuccessful, and performed biopsies of the skin, that diagnosis psoriasiform spongious dermatitis. The case was referred to the endocrinology departament and we did the diagnosis of glucagonoma, based on the symptoms and skin lesions, confirmed by pancreatic glucagon levels of 722 pg/ml (reference value < 208 pg/ml). […] We considered diagnosis hypothesis of adrenal insufficiency and after offered hydrocortisone, it was observed improvement in their condition in 24 h.

[2] = tested on: patient with mucormycosis; test: Oral mucormycosis in a diabetic patient, case report; format: in vivo, human; details: treated for 10 days
Description: Case presentation: person, admitted with diabetic ketoacidosis. On the 5th day of hospitalization, they complained of odynophagia, without other symptoms. On examination of the oral cavity, was found an ulcerated, infiltrative, whitish, and non-removable lesion in the soft palate (Fig. 1). No abnormalities were found in laboratory tests.

[3] = tested on: patients with long-standing T1DM; test: Mixed-meal tolerance test + oral 5 mg glibenclamide, ultrasensitive C-peptide; format: in vivo, human; details: 4 of 6 T1DM patients
Procedure: Fasting blood was taken for measurement of C-peptide (ELISA; Mercodia® (Uppsala, Sweden; cat.Nº10-1141-01). Thirty one patients (24,5%) had C-peptide > 10 pmol/L or 0.03 ng/ml. Six patients were randomly recruited to undergo a mixed-meal tolerance test + oral 5 mg glibenclamide.

patients with T2D = test: Network meta-analysis Gla-300 vs IDeg (inputs of the cost-effectiveness model); format: in vivo, human; details: estimated by network meta-analysis
Description: Methods: This modelling analysis simulated a cohort representing patients in the EDITION 2 and 3 trials using the IMS Core Diabetes Model with a time horizon of 50 years (lifetime) for 1,000,000 patients starting at 62 years old. […] The treatment cost was $1,561 per SHE and $13.65 per NSHE (2015 $). Utilities to estimate quality-adjusted life years (QALYs) for multiple comorbidities were applied using the minimum utility approach. A disutility of -0.0118 was applied for SHE, and method of diminishing marginal disutility for NSHE.

[4] = tested on: inpatient population with diabetes; test: Degludeca vs NPH, both with Regular Insulin, in hospital (8 patients per group); details: human, in vivo
Procedure: Methods: We conducted a retrospective, randomized study to compare the efficacy and safety of different basal insulin (Degludeca versus NPH), both on Basal-bolus insulin regimen on inpatient population with diabetes. Data were collected from the medical records, between May, 2016 until April, 2017. 8 patients were selected and randomized in each group. We established optimal glycemic control for patients with capillary glucose below 140 mg/dl in fasting and before main meals and below 180 mg/dL for 2 h after main meals. The criteria for excellent glycemic control was to achieve at least 70% within the previously established target and for acceptable glycemic control, those patients who had between 60% and 69% of the glycemia within the established target. The total number of hypoglycemia was assessed and classified as severe hypoglycemia (< 40 mg/dl) and mild hypoglycemia (< 70 mg/dl) as well as nocturnal hypoglycemia. In addition, the time required to achieve excellent or acceptable glycemic control was also analyzed.

[5] = tested on: elderly patients with T2DM; test: Pilot randomized trial Ideg vs Iglar-U100 with CGM; format: in vivo, human
Procedure: Methods: It is a pilot study with ten patients during six weeks, randomized, prospective, controlled and open label trial. Inclusion criteria: T2DM, age over 60 years, A1C from 7 to 10%, use of NPH insulin with or without oral antidiabetic drugs. […] They were evaluated for glucose variability (GV) and HYPOs by continuous glucose monitoring (CGM) after 2 weeks of treatment with either insulin.

child with CGL type 2 = test: Case report: high doses of insulin in congenital generalized lipodystrophy; format: in vivo, human
Procedure: Case: Child with clinical diagnosis of CGL type 2 and diagnosis of diabetes for 1 year. Using Glargina and Lispro insulin basal/bolus (5.1 IU/kg/day) presented mean daily capillary glycemia above 600 mg/dl, associated with irritability, low weight and voracious appetite. Interned for intravenous insulin therapy and nutritional adjustment with standardized diet of 1600 kcal/day fractionated in 7 meals. Initiated continuous infusion of regular insulin (RI), 6.1UI/kg/day. […] Subsequently, it was modified to intramuscular administration, in 5 application times, without differences in glycemic averages. On the 36 th day, Degludeca insulin was introduced (9.3 IU/kg/day) associated with RI (18.2 U/kg/day), evolving within the first 24 h with improved glycemia (180 ± 42 mg/dl). […] After approximately fivefold increase in the initial insulin dose, there was improvement in glycemia, irritability, weight gain and decreased appetite.

type 2 diabetic patient = test: Case report: liraglutide added to insulin degludec and metformin; format: in vivo, human; details: 30 days of Insulin Degludec 16U with metformin
Procedure: patient one, type 2 diabetic for 3 years, using Gliclazide 60 mg/day and Metformin 1500 mg/day. They reported asthenia and difficulty losing weight. […] To optimize patient glycemic control and weight loss, Liraglutide 1.2 mg/day was initiated. […] The insulin dose was reduced to 10 U and reassessed in 30 days for possible discontinuation of insulin therapy. GLP- 1 receptor agonists stimulate insulin secretion in a […] manner, inhibit glucagon secretion and hepatic glucose output, delay gastric emptying, induce satiety, reduce appetite, and cause weight loss. […] It is a therapeutic option with action well established in weight loss, metabolic and glycemic improvement in the DM2 patient. However, its action on HbA1C reduction was independent of weight loss, evidencing intensive glycemic control with HbA1C between 6.5 and 7.0% even with discrete or even absent weight loss.

[6] = tested on: patients with DM 1 and DRIASM; test: Case reports: IDeg in resistance to subcutaneous and intramuscular insulin (DRIASM); format: in vivo, human; details: patient 1; IDeg since December 2015
Procedure: It was suspected of diabetes mellitus with resistance to insulin administered subcutaneously or intramuscularly (DRIASM). […] After that it was decided to perform a therapeutic test with IDeg. […] They remained in use of IDeg 80 UI/d and lispro 600 UI/d. […] An insulin challenge test was performed with SC and IM NPH/Glargina/Detemir and IV regular insulin. […] They remained in use of IDeg 80 UI/d and aspart 2000 UI/d.

patient with DRIASM = test: Insulin degludec in DRIASM, case report; format: in vivo, human
Description: Discussion: DRIASM is a rare syndrome, characterized by extreme resistance to SC and IM insulin, whose pathophysiology remains unknown. There are few treatments available and most are ineffective. The use of intraperitoneal insulin pump is the therapy with the best result so far, but it is not available in Brazil. Another possibility is the PTA, initially proposed by our group and then performed in other countries. […] After SC injection, the di-hexamers form a stable depot of multi-hexamer chains, with gradual dissociation of these chains into absorbed monomers.

T1D patients < 18 years = test: Real-world clinical follow-up of T1D patients < 18 years switched to insulin degludec; format: in vivo, human; details: n = 9
Description: Information about HbA1c, insulin dose, weight and frequency of hypoglycaemia (self-reported by patients/parents) were collected in every consultant.

participants with T1DM = test: Multiple-dosing crossover euglycemic glucose clamp study, steady-state PK/PD; format: in vivo, human
Description: For both insulins, participants received 0.4 (n = 24) or 0.6 U/kg/day (n = 24) at ~ 8 am for 8 days. Main endpoint: within-day variability (fluctuation) of smoothed glucose infusion rate (GIR) over a 24-h dosing period (GIR-smFL0-24). […] This is an ENCORE abstract previously presented at ADA2017. Funding and editorial support provided by Sanofi (Fig. 1)

[7] = tested on: adults with T2D using basal insulin; test: DELIVER2 real-world study, switch of basal insulin; format: in vivo, human; details: PS matched
Procedure: Methods: DELIVER2 used data from Predictive Health Intelligence Environment database of medical records representing 37 integrated delivery networks. […] The endpoints were A1C change from baseline, incidence and event rate of hypoglycemia (hypo) (identified by ICD-9/ICD-10 and/or plasma glucose level ≤ 70 mg/dL), and HCU (incidence and event rate of all-cause, diabetes-, and hypo-related visits) within 6 m.

[8] = tested on: T2D pts aged ≥ 65 years on basal insulin; test: DELIVER 3 retrospective real-world study; format: in vivo, human
Procedure: Older patients (pts) with T2D are disproportionately impacted by treatment-related hypoglycemia and its adverse consequences. […] Pts had ≥ 12 months (mo) of baseline data and ≥ 6 mo of follow-up data. The effect of cohort on A1C reduction, hypoglycemia incidence/event rate, and achievement of A1C goal at 6 mo were assessed by generalized linear models or logistic regression models with adjustment for baseline characteristics. […] This is an ENCORE abstract previously presented at ADA2017. Funding and editorial support provided by Sanofi.

[9] = tested on: T2DM pts uncontrolled on BOT with other BI; test: TOP-2 prospective observational study, 6 month interim analysis; format: in vivo, human
Procedure: Adult pts currently on a BOT with an indication for changing their insulin therapy due to non-achievement of glycemic targets (A1c 7.5–10.0%) are enrolled. Primary endpoint (EP) is the rate of pts achieving a fasting plasma glucose (FPG) ≤ 110 mg/dL after 6 and 12 months, respectively. Secondary EPs include change in A1c, FPG, body weight (BW) and insulin dose, hypoglycemia incidence and safety. Here we report on an interim analysis including all German pts, for whom 6 month results were available 15 months after study start (n = 661). […] Less pts experienced nocturnal hypoglycemia (0.5% vs 1.2%). […] Final results are expected for 2018 (Fig. 1)

CC(C)(c1ccc(O)cc1)c1ccc(O)cc1 [BPA, Bisphenol-A]
glycemia in GTT (OVX female Swiss mice; 15 min, HFD 444 ± 13): 427 ± 17 mg/dL | glycemia in GTT (OVX female Swiss mice; 30 min, HFD 453 ± 23): 450 ± 22 mg/dL | insulin secretion [1]: 1.8 ± 0.2 ng/islet h

CN(C)C(=N)N=C(N)N [D + PA + MTF, metformin]
pregnant women with adverse perinatal outcomes / women in group (diabetic pregnant women): 5/12

C[C@@H](O)[C@@H]1NC(=O)[C@H](CCCCN)NC(=O)[C@@H](Cc2c[nH]c3ccccc23)NC(=O)[C@H](Cc2ccccc2)NC(=O)[C@@H](NC(=O)[C@H](N)Cc2ccccc2)CSSC[C@@H](C(=O)N[C@H](CO)[C@@H](C)O)NC1=O [Octreotide]
skin lesions (necrolytic migratory erythema) (patient with glucagonoma): effective in reducing the number and extent of lesions

C[C@@H]1[C@H](O)[C@@H](C)/C=C/C=C/C=C/C=C/C=C/C=C/C=C/[C@H](O[C@@H]2O[C@H](C)[C@@H](O)[C@H](N)[C@@H]2O)C[C@@H]2O[C@](O)(C[C@@H](O)C[C@@H](O)[C@H](O)CC[C@@H](O)C[C@@H](O)CC(=O)O[C@H]1C)C[C@H](O)[C@H]2C(=O)O [amphotericin B]
clinical response [2]: favorable response

COc1ccc(Cl)cc1C(=O)NCCc1ccc(S(=O)(=O)NC(=O)NC2CCCCC2)cc1 [sulfonylurea, glibenclamide]
patients with positive response (C-peptide > 200 pmol/L) [3]: 66.7%

insulin degludec [IDeg]
A1C reduction over 24 weeks (patients with T2D): 0.98% | time to achieve excellent glycemic control, average [4]: 4 days | 24-h mean glucose, median (minimum–maximum) ([5]; CGM after 2 weeks, n = 5 per group, P = 0.84): 168 (151–206) mg/dL | standard deviation from the mean glucose, median (minimum–maximum) ([5]; CGM, P = 0.22): 69 (42– 83) | blood glucose level (child with CGL type 2; after the first 24 h of Degludeca with RI): 232.6 ± 74.7 mg/dL | glycemia (child with CGL type 2; first 24 h of Degludeca 9.3 IU/kg/day with RI 18.2 U/kg/day): 180 ± 42 mg/dL | fasting glycemia (GJ) (type 2 diabetic patient): 171 mg/dL | HbA1c (type 2 diabetic patient; […] before): 8.2% | hospitalizations due to DKA [6]: reduction of hospitalizations | treatment of DRIASM (patient with DRIASM; case report, extreme resistance to SC and IM insulin): effective in the treatment of DRIASM, with reduction in hospital admissions and DKA episodes | absorption and plasma glucose in test (patient with DRIASM; differently from all previously basal insulins): able to be absorbed and to reduce plasma glucose | Median HbA1c at 6 months after switch (T1D patients < 18 years): 7.52% | Median HbA1c before switch (T1D patients < 18 years; on previous basal insulin or CSII): 8.17%

insulin glargine [Gla-300]
A1C reduction over 24 weeks (patients with T2D): 1.00% | Within-day GIR variability (GIR-smFL0-24), lower vs. Deg-100 (participants with T1DM; 0.4 U/kg/day once daily ~8 am for 8 days, steady state, n = 24, p = 0.047): 20% | Within-day GIR variability (GIR-smFL0-24) vs. Deg-100 (participants with T1DM; 0.6 U/kg/day, n = 24): comparable | A1C during 6 m follow-up [7]: 8.40% | Mean baseline A1C ([7]; 1827 pts per group): 8.95% | achieved A1C < 7.0%, OR vs. other basal insulins ([8]; 95% CI 0.581, 1.098, P = 0.166): 0.798 | achieved A1C < 8.0%, OR vs. other basal insulins ([8]; 95% CI 0.749, 1.248, P = 0.797): 0.967 | mean (± SD) A1c before switching ([9]; n = 661): 8.21 ± 0.8% | HbA1c, TOP-2 FAS 6 month [mean±SD] ([9]; six months after switching to Gla-300): 7.67 ± 1.0%
